{
  "source": "patent US20130022620A1",
  "about": "“ASSAYS AND METHODS PERTAINING TO PRE-AMYLOID INTERMEDIATES” (priority 2011, published 2013)",
  "key": {"h-IAPP": {"biological_target": "T1, h-IAPP (Homo sapiens, UniProt P10997)", "T1 sequence (P10997 34-70 limits assumed)": "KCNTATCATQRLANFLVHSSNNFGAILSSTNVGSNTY", "conditions": "I26P point mutant; Fanling et al. 2010; cited from earlier work"}, "sRAGE [1]": {"biological_target": "T2, sRAGE (Homo sapiens, UniProt Q15109)", "T2 construct": "the soluble extracellular domain of RAGE (sRAGE); made in house; host or cells: Sf9 insect cells (baculovirus)", "T2 sequence (Q15109 23-342)": "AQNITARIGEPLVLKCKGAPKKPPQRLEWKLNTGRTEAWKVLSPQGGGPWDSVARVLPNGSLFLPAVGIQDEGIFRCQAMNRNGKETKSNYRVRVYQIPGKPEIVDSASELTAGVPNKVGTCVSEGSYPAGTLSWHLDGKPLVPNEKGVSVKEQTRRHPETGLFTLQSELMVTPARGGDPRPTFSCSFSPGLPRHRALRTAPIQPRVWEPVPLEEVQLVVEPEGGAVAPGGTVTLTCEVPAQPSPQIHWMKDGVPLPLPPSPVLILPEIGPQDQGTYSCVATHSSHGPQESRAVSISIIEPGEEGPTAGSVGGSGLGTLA", "assay": "Difference CD of IAPP peptides with sRAGE", "format": "binding", "conditions": "end point of the reactions", "description": "CD measurements of IAPP, sRAGE and IAPP/sRAGE reactions were taken at various incubation times. Far-UV CD experiments monitor the development of secondary structure of h-IAPP species and give insight into the conformational requirement for IAPP/RAGE-binding. All CD experiments were performed on an Applied Photophysics circular dichroism spectrophotometer by directly transferring 300 μL of peptide solution from kinetic assays into a 0.1 cm quartz cuvette a few minutes prior to data collection. The CD spectra for sRAGE and tris HCl buffer was subtracted from all RAGE/IAPP mixtures. The final far-UV CD data was collected over the range of 190 to 260 nm. Final solution conditions contained 16 mM tris HCl (pH 7.4)."}, "rat INS-1 β-cells": {"system": "rat INS-1 β-cells", "assay": "AlamarBlue cell viability assay of β-cells", "format": "cell-based", "description": "Transformed rat insulinoma-1 (INS-1) β-cells (which express RAGE) are a pancreatic beta cell line commonly used for studies of h-IAPP induced toxicity. INS-1 cells were grown in RPMI 1640 supplemented with 10% fetal bovine serum (FBS), 11 mM glucose, 10 mM Hepes, 2 mM L-glutamine, 1 mM sodium pyruvate, 50 μM β-mercaptoethanol, 100 U/ml penicillin, and […] streptomycin. Cells were maintained at 37° C./5% CO2.\nCyto-toxicity was measured by AlamarBlue assay. INS-1 β-cells were seeded at a density of 30,000 cells per well in 96-well plates and cultured for 24 hours prior to stimulation with IAPP. Human and rat IAPP were dissolved and incubated in 16 mM tris HCl (pH 7.4, 25° C.) prior to cell stimulation. AlamarBlue was diluted ten-fold in culture media and cells were incubated for 5 hours at 37° C. Fluorescence (excitation 530; emission 590 nm) was measured on a Beckman Coulter DTX880 fluorescent plate reader. Values calculated were relative to those of control cells treated with buffer only. All values represent means±SEM (n=3).\nChanges in cell morphology were examined by light microscopy to provide a second method of evaluating cell viability. Transformed rat INS-1 beta cells were photographed immediately prior to assessment of toxicity by Alamar blue cell viability assays. Images were taken using an Olympus BX-61 light microscope."}, "[2]": {"assay": "Thioflavin-T kinetics and TEM of amyloid formation by IAPP peptides", "format": "physicochemical", "description": "Thioflavin-T fluorescence was used to monitor the time course of h-IAPP amyloid formation in the presence and absence of sRAGE. To identify which form(s) of h-IAPP interact with RAGE, sRAGE was added to h-IAPP at various time points during the h-IAPP amyloid formation reaction. Aliquots of the reaction mixture were analyzed by adding 100 uL aliquots of the amyloid formation reaction to 96-well plates containing 8 uL of 60 uM thioflavin-T solution at various incubation times after initiation of the amyloid formation reaction. Fluorescence was measured using a Beckman Coulter DTX880 fluorescent plate reader (excitation: 445 nm and emission: 485 nm). Final solution conditions contained 16 mM tris HCl and […] thioflavin-T (pH 7.4). […] All values represent means±SEM (n=3).\nTransient kinetic species of h-IAPP were characterized by TEM. TEM images confirm the presence or absence of amyloid which were indicated by thioflavin-T fluorescence. Aliquots (4 μl) were removed from the reaction mixtures monitored by thioflavin-T assays, placed on a carbon-coated 200-mesh copper grid and negatively stained with saturated uranyl acetate. The samples were imaged with a Philips CM12 transmission electron microscope at the New York University electron microscopy core facility. Final solution conditions contained 16 mM tris HCl (pH 7.4)."}, "sRAGE [3]": {"biological_target": "T2, sRAGE", "assay": "Tryptophan fluorescence quenching assay of sRAGE binding", "conditions": "sRAGE added at different time points of the reaction, 1:1 molar ratio", "description": "The quenching of tryptophan fluorescence indicates binding. Fluorescence measurements were made at right angle in a […] dual path length quartz cuvette, using a Photon Technology International fluorescent spectrometer (280 nm excitation and 350 nm emission). Background fluorescence from buffer and IAPP peptides were negligible. The fluorescence quantum yield reported for each time point is an average of 20 reads over 20 seconds (2.5 nm bandwidth and 1 second integration time). Final solution conditions contained 16 mM tris HCl (pH 7.4)."}, "[4]": {"conditions": "Ser-20 substitution; Cao et al. 2011; cited from earlier work"}},
  "note": "Positions of bridges follow the written chain, without caps; N, C: chain ends. No end group written: not given here.",
  "data": [
    {"substance": "I26P-IAPP: I26P point mutant of h-IAPP, inhibitor of h-IAPP amyloid formation (KCNTATCATQRLANFLVHSSNNFGAPLSSTNVGSNTY-NH2; disulfide 2-7; N-terminus assumed; SMILES CC(C)C[C@H](NC(=O)[C@H](CCCNC(=N)N)NC(=O)[C@H](CCC(N)=O)NC(=O)[C@@H](NC(=O)[C@H](C)NC(=O)[C@@H]1CSSC[C@H](NC(=O)[C@@H](N)CCCCN)C(=O)N[C@@H](CC(N)=O)C(=O)N[C@@H]([C@@H](C)O)C(=O)N[C@@H](C)C(=O)N[C@@H]([C@@H](C)O)C(=O)N1)[C@@H](C)O)C(=O)N[C@@H](C)C(=O)N[C@@H](CC(N)=O)C(=O)N[C@@H](Cc1ccccc1)C(=O)N[C@@H](CC(C)C)C(=O)N[C@H](C(=O)N[C@@H](Cc1c[nH]cn1)C(=O)N[C@@H](CO)C(=O)N[C@@H](CO)C(=O)N[C@@H](CC(N)=O)C(=O)N[C@@H](CC(N)=O)C(=O)N[C@@H](Cc1ccccc1)C(=O)NCC(=O)N[C@@H](C)C(=O)N1CCC[C@H]1C(=O)N[C@@H](CC(C)C)C(=O)N[C@@H](CO)C(=O)N[C@@H](CO)C(=O)N[C@H](C(=O)N[C@@H](CC(N)=O)C(=O)N[C@H](C(=O)NCC(=O)N[C@@H](CO)C(=O)N[C@@H](CC(N)=O)C(=O)N[C@H](C(=O)N[C@@H](Cc1ccc(O)cc1)C(N)=O)[C@@H](C)O)C(C)C)[C@@H](C)O)C(C)C)", "values": [
      {"measurement": "inhibition of h-IAPP amyloid formation", "setting": "h-IAPP", "result": "potent inhibitor of h-IAPP amyloid formation"},
      {"measurement": "interaction with sRAGE (difference CD)", "setting": "sRAGE [1]", "result": "does not interact"},
      {"measurement": "toxicity by itself", "setting": "rat INS-1 β-cells; 40 uM, pH 7.4 25° C.", "result": "is not toxic by itself"},
      {"measurement": "effect of the amyloid inhibitor on duration of h-IAPP toxicity", "setting": "rat INS-1 β-cells; 1:1 mixture with 40 uM h-IAPP", "result": "increases the duration of toxicity"},
      {"measurement": "amyloid formation (thioflavin-T)", "setting": "[2]; peptide by itself", "result": "does not form amyloid"},
      {"measurement": "binding to sRAGE (tryptophan fluorescence quenching)", "setting": "sRAGE [3]", "result": "No binding was detected"}
    ]},
    {"substance": "S20G-IAPP: S20G mutation of human IAPP, SEQ ID NO: 3 (KCNTATCATQRLANFLVHSGNNFGAILSSTNVGSNTY-NH2; disulfide 2-7; N-terminus assumed; SMILES CC[C@H](C)[C@H](NC(=O)[C@H](C)NC(=O)CNC(=O)[C@H](Cc1ccccc1)NC(=O)[C@H](CC(N)=O)NC(=O)[C@H](CC(N)=O)NC(=O)CNC(=O)[C@H](CO)NC(=O)[C@H](Cc1c[nH]cn1)NC(=O)[C@@H](NC(=O)[C@H](CC(C)C)NC(=O)[C@H](Cc1ccccc1)NC(=O)[C@H](CC(N)=O)NC(=O)[C@H](C)NC(=O)[C@H](CC(C)C)NC(=O)[C@H](CCCNC(=N)N)NC(=O)[C@H](CCC(N)=O)NC(=O)[C@@H](NC(=O)[C@H](C)NC(=O)[C@@H]1CSSC[C@H](NC(=O)[C@@H](N)CCCCN)C(=O)N[C@@H](CC(N)=O)C(=O)N[C@@H]([C@@H](C)O)C(=O)N[C@@H](C)C(=O)N[C@@H]([C@@H](C)O)C(=O)N1)[C@@H](C)O)C(C)C)C(=O)N[C@@H](CC(C)C)C(=O)N[C@@H](CO)C(=O)N[C@@H](CO)C(=O)N[C@H](C(=O)N[C@@H](CC(N)=O)C(=O)N[C@H](C(=O)NCC(=O)N[C@@H](CO)C(=O)N[C@@H](CC(N)=O)C(=O)N[C@H](C(=O)N[C@@H](Cc1ccc(O)cc1)C(N)=O)[C@@H](C)O)C(C)C)[C@@H](C)O; listed as Homo sapiens)", "values": [
      {"measurement": "lag phase and rate of amyloid formation", "setting": "[4]", "result": "abolishes the lag phase and increases the rate of amyloid formation"},
      {"measurement": "onset and duration of toxicity compared to wild type", "setting": "rat INS-1 β-cells; side-by-side with kinetics, 20 uM for the Ser-20 mutants", "result": "faster onset and shorter duration of toxicity compared to wild type"},
      {"measurement": "rate of aggregation compared to wild type", "setting": "[2]; 20 uM, pH 7.4 25° C.", "result": "faster rate of aggregation"}
    ]}
  ]
}
